Results from PubChem BioAssay AID2060336 (Molecular Pharmacology Branch, DTP, NCI, 2025).

Tested on: 958767-090-R-J1-PDC spheroid growth
Assay: Anticancer human tumor 958767-090-R-J1-PDC patient-derived head and neck squamous carcinoma cell line growth inhibition [IpAb]
Conditions: spheroids with HUVEC and MSC; for IC50: curve of first compound; for viability, T/C: stronger effect = lower value
Method in brief: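 Multi-cell spheroids of 60% tumour cells, 25% HUVEC and 15% MSC in ultra-low-attachment U-bottom wells, treated with agents combined with ipatasertib or abemaciclib. Half-log ranges top out near clinical Cmax, or 10 microM when Cmax is unknown.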

[1] = second compound 0.01 µM, first compound 0.0316 µM
[2] = second compound 0.01 µM, first compound 0.1 µM
[3] = second compound 0.01 µM, first compound 0.316 µM
[4] = second compound 0.01 µM, first compound 1 µM
[5] = second compound 0.01 µM, first compound 3.16 µM
[6] = second compound 0.01 µM, first compound 10 µM
[7] = second compound 0.0316 µM, first compound 0.0316 µM
[8] = second compound 0.0316 µM, first compound 0.1 µM
[9] = second compound 0.0316 µM, first compound 0.316 µM
[10] = second compound 0.0316 µM, first compound 1 µM
[11] = second compound 0.0316 µM, first compound 3.16 µM
[12] = second compound 0.0316 µM, first compound 10 µM
[13] = second compound 0.1 µM, first compound 0.0316 µM
[14] = second compound 0.1 µM, first compound 0.1 µM
[15] = second compound 0.1 µM, first compound 0.316 µM
[16] = second compound 0.1 µM, first compound 1 µM
[17] = second compound 0.1 µM, first compound 3.16 µM
[18] = second compound 0.1 µM, first compound 10 µM
[19] = second compound 0.316 µM, first compound 0.0316 µM
[20] = second compound 0.316 µM, first compound 0.1 µM
[21] = second compound 0.316 µM, first compound 0.316 µM
[22] = second compound 0.316 µM, first compound 1 µM
[23] = second compound 0.316 µM, first compound 3.16 µM
[24] = second compound 0.316 µM, first compound 10 µM
[25] = second compound 1 µM, first compound 0.0316 µM
[26] = second compound 1 µM, first compound 0.1 µM
[27] = second compound 1 µM, first compound 0.316 µM
[28] = second compound 1 µM, first compound 1 µM
[29] = second compound 1 µM, first compound 3.16 µM
[30] = second compound 1 µM, first compound 10 µM
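Further: spheroids exposed to agents for 7 days.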
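Wherever viability, T/C is given: 100% = DMSO vehicle control wells.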

## C=CC(=O)N1CCN(c2nc(=O)n(-c3c(C)ccnc3C(C)C)c3nc(-c4c(O)cccc4F)c(F)cc23)C(C)C1 (stereo not given) + CCN1CCN(Cc2ccc(Nc3ncc(F)c(-c4cc(F)c5nc(C)n(C(C)C)c5c4)n3)nc2)CC1
Second compound 0.01 µM
  IC50: 8.41 µM
Second compound 0.0316 µM
  IC50: 7.73 µM
Second compound 0.1 µM
  IC50: 8.02 µM
Second compound 0.316 µM
  IC50: 8.18 µM
Second compound 1 µM
  IC50: 9.88 µM
[1]
  viability, T/C: 96.3%
[2]
  viability, T/C: 84.9%
[3]
  viability, T/C: 94.4%
[4]
  viability, T/C: 94.8%
[5]
  viability, T/C: 81.9%
[6]
  viability, T/C: 44.3%
[7]
  viability, T/C: 82.4%
[8]
  viability, T/C: 84.8%
[9]
  viability, T/C: 90.7%
[10]
  viability, T/C: 92.3%
[11]
  viability, T/C: 83.5%
[12]
  viability, T/C: 40%
[13]
  viability, T/C: 72.2%
[14]
  viability, T/C: 70.2%
[15]
  viability, T/C: 75.1%
[16]
  viability, T/C: 94.2%
[17]
  viability, T/C: 81.4%
[18]
  viability, T/C: 43.3%
[19]
  viability, T/C: 77%
[20]
  viability, T/C: 55.1%
[21]
  viability, T/C: 72.5%
[22]
  viability, T/C: 94.1%
[23]
  viability, T/C: 75.9%
[24]
  viability, T/C: 44.9%
[25]
  viability, T/C: 89.7%
[26]
  viability, T/C: 82.4%
[27]
  viability, T/C: 94.6%
[28]
  viability, T/C: 96.1%
[29]
  viability, T/C: 87.7%
[30]
  viability, T/C: 49.5%

## Cn1ncc(Cl)c1-c1cc(C(=O)NC(CN)Cc2cccc(F)c2)sc1Cl (stereo not given) + CCN1CCN(Cc2ccc(Nc3ncc(F)c(-c4cc(F)c5nc(C)n(C(C)C)c5c4)n3)nc2)CC1
Second compound 0.01 µM
  IC50: 0.786 µM
Second compound 0.0316 µM
  IC50: 0.647 µM
Second compound 0.1 µM
  IC50: 0.614 µM
Second compound 0.316 µM
  IC50: 1.08 µM
Second compound 1 µM
  IC50: 0.818 µM
[1]
  viability, T/C: 89.7%
[2]
  viability, T/C: 76.1%
[3]
  viability, T/C: 58.8%
[4]
  viability, T/C: 45.4%
[5]
  viability, T/C: 33.5%
[6]
  viability, T/C: 0.14%
[7]
  viability, T/C: 75.1%
[8]
  viability, T/C: 74.5%
[9]
  viability, T/C: 62.6%
[10]
  viability, T/C: 38.3%
[11]
  viability, T/C: 25.5%
[12]
  viability, T/C: 0.15%
[13]
  viability, T/C: 73.2%
[14]
  viability, T/C: 65.9%
[15]
  viability, T/C: 51.5%
[16]
  viability, T/C: 46.1%
[17]
  viability, T/C: 30.3%
[18]
  viability, T/C: 0.18%
[19]
  viability, T/C: 62.7%
[20]
  viability, T/C: 46.6%
[21]
  viability, T/C: 47.1%
[22]
  viability, T/C: 52.5%
[23]
  viability, T/C: 19.7%
[24]
  viability, T/C: 0.17%
[25]
  viability, T/C: 83.7%
[26]
  viability, T/C: 63.3%
[27]
  viability, T/C: 62.3%
[28]
  viability, T/C: 50.9%
[29]
  viability, T/C: 27.9%
[30]
  viability, T/C: 1.92%

## Cn1ncnc1[C@H]1c2n[nH]c(=O)c3cc(F)cc(c23)N[C@@H]1c1ccc(F)cc1 + CCN1CCN(Cc2ccc(Nc3ncc(F)c(-c4cc(F)c5nc(C)n(C(C)C)c5c4)n3)nc2)CC1
Second compound 0.01 µM
  IC50: > 0.1 µM
Second compound 0.0316 µM
  IC50: > 0.1 µM
Second compound 0.1 µM
  IC50: > 0.1 µM
Second compound 0.316 µM
  IC50: 0.0322 µM
Second compound 1 µM
  IC50: > 0.1 µM
Second compound 0.01 µM, first compound 0.000316 µM
  viability, T/C: 90.1%
Second compound 0.01 µM, first compound 0.001 µM
  viability, T/C: 93.3%
Second compound 0.01 µM, first compound 0.00316 µM
  viability, T/C: 66.3%
Second compound 0.01 µM, first compound 0.01 µM
  viability, T/C: 84%
[1]
  viability, T/C: 75%
[2]
  viability, T/C: 66%
Second compound 0.0316 µM, first compound 0.000316 µM
  viability, T/C: 83.6%
Second compound 0.0316 µM, first compound 0.001 µM
  viability, T/C: 75.1%
Second compound 0.0316 µM, first compound 0.00316 µM
  viability, T/C: 67.8%
Second compound 0.0316 µM, first compound 0.01 µM
  viability, T/C: 46.2%
[7]
  viability, T/C: 52.8%
[8]
  viability, T/C: 67.4%
Second compound 0.1 µM, first compound 0.000316 µM
  viability, T/C: 68.8%
Second compound 0.1 µM, first compound 0.001 µM
  viability, T/C: 64.6%
Second compound 0.1 µM, first compound 0.00316 µM
  viability, T/C: 60.8%
Second compound 0.1 µM, first compound 0.01 µM
  viability, T/C: 56.6%
[13]
  viability, T/C: 50.2%
[14]
  viability, T/C: 59.4%
Second compound 0.316 µM, first compound 0.000316 µM
  viability, T/C: 59.2%
Second compound 0.316 µM, first compound 0.001 µM
  viability, T/C: 53.8%
Second compound 0.316 µM, first compound 0.00316 µM
  viability, T/C: 49.3%
Second compound 0.316 µM, first compound 0.01 µM
  viability, T/C: 54%
[19]
  viability, T/C: 56.8%
[20]
  viability, T/C: 43.4%
Second compound 1 µM, first compound 0.000316 µM
  viability, T/C: 70.8%
Second compound 1 µM, first compound 0.001 µM
  viability, T/C: 73.7%
Second compound 1 µM, first compound 0.00316 µM
  viability, T/C: 70.5%
Second compound 1 µM, first compound 0.01 µM
  viability, T/C: 60.2%
[25]
  viability, T/C: 56.6%
[26]
  viability, T/C: 58.2%
